From paper PMC12775434, “Ultra-large virtual screening unveils potent agonists of the neuromodulatory orphan receptor GPR139” (Nature Communications, 2025) come the findings set out here.

Common to all, as to format: cell-based
Test [1] has as its target T1, GPR139 (Homo sapiens, UniProt Q6DWJ6).
T1 sequence (Q6DWJ6 1-353): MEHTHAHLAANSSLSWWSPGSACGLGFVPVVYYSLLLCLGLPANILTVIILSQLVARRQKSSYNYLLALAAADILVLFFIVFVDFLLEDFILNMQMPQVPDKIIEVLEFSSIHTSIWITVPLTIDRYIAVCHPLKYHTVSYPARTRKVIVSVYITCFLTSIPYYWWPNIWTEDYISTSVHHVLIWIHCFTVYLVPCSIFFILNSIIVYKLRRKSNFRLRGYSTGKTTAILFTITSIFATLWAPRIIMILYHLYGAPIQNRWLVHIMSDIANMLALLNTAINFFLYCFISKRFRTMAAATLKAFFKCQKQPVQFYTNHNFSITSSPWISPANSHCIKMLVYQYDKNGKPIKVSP
As to the kind of experiment: Ca2+ mobilization assay, antagonist mode (EC80 800 nM Lundbeck Cmp 1a after 20 min preincubation), GPR139-CHOk1. Particulars: individual replicates (Supplementary Figure 4). In a few lines: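 Antagonist mode: 800 nM (EC80) reference agonist Lundbeck Cmp 1a added following 20 min pre-incubation with 10 µM compound. GPR139-CHOk1 cells, Fluo-4 dye, probenecid-containing HEPES buffer pH 7.4; intracellular Ca2+ measured at 37 °C (ex 485, em 525 nm).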

The target of test [2] is T2, human muscarinic acetylcholine M1 receptor (M1R) (Homo sapiens, UniProt P11229).
T2 sequence (P11229 1-460): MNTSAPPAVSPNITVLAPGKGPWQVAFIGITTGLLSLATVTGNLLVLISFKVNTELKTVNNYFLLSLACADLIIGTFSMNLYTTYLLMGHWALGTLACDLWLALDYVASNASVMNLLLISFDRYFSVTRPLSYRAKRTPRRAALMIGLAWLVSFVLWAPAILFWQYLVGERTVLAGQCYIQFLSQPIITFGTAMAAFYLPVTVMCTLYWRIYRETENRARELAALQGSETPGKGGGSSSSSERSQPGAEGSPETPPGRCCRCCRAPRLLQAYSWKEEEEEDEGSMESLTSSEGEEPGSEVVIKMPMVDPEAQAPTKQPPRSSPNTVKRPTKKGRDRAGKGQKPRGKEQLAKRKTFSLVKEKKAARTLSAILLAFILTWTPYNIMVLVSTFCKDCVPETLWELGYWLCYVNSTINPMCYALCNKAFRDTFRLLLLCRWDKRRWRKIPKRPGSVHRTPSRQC
Put plainly: Ca2+ mobilization counter-screen in M1R-CHOk1 cells.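 Also: 10 µM test compound.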 The following applies: individual replicates (Supplementary Figure 5). The procedure, abridged: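 Fluorescence (ex 485 nm, em 525 nm) recorded at 37 °C after automated compound addition to CHO-K1 cells stably expressing M1R. Cells were dye-loaded with 2 µM Fluo-4 AM for 1 h at 37 °C, with 2.5 mM probenecid present; final DMSO at most 0.3%.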

For test [3], the target named is T1, GPR139. As to the kind of experiment: Ca2+ mobilization assay, agonist mode, stable GPR139-CHOk1 cell line. The following applies: for EC50 / Emax: Supplementary Table 2, mean ± SEM; for EC50: read-out: pEC50 Ca2+ (converted); for Emax: normalized to Lundbeck Cmp 1a, read-out: Emax (%) Ca2+. The procedure, abridged: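 Agonist activity of compounds is assessed in stably transfected CHO-K1 cells using the calcium dye Fluo-4 at 37 °C in HEPES-buffered HBSS (pH 7.4). Efficacy is expressed relative to the reference agonist Lundbeck Cmp 1a, set as 100%.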

The mark [4] stands for this setting: Agonist mode, individual replicates (Supplementary Figure 4).
The mark [5] stands for this setting: log [Compound] M = -4.5, individual replicate columns.
Setting [6] is: log [Compound] M = -5.0, individual replicate columns.
The mark [7] stands for this setting: log [Compound] M = -5.5, individual replicate columns.
The mark [8] stands for this setting: log [Compound] M = -6.0, individual replicate columns.
[9] abbreviates: log [Compound] M = -6.5, individual replicate columns.
[10] abbreviates: log [Compound] M = -7.0, individual replicate columns.
The mark [11] stands for this setting: log [Compound] M = -7.5, individual replicate columns.
[12] abbreviates: log [Compound] M = -8.0, individual replicate columns.
The mark [13] stands for this setting: log [Compound] M = -8.5, individual replicate columns.
The mark [14] stands for this setting: log [Compound] M = -9.0, individual replicate columns.

Where “and” joins values, the source holds several entries; their conditions need not be identical. Equal values may be shown once.

For `Cc1ncc(-c2nc(CC(=O)NC(C)c3ccccc3)no2)o1` (stereo not shown) [Compound 1.25, CC(C1=CC=CC=C1)NC(CC2=NOC(C3=CN=C(O3)C)=N2)=O], the “Ca2+ signal (% of Cmp 1a)” value in test [1] is 3 % of Cmp 1a and 15 % of Cmp 1a and 5.33 % of Cmp 1a; in test [3] (setting [4]), 86 % of Cmp 1a and 76 % of Cmp 1a and 90 % of Cmp 1a; in test [3] (setting [5]), 107 % of Cmp 1a and 102 % of Cmp 1a and 85 % of Cmp 1a and 96 % of Cmp 1a and 104 % of Cmp 1a; in test [3] (setting [6]), 92 % of Cmp 1a (2×) and 95 % of Cmp 1a and 77 % of Cmp 1a and 93 % of Cmp 1a; in test [3] (setting [7]) it was 62 % of Cmp 1a and 74 % of Cmp 1a and 52 % of Cmp 1a and 93 % of Cmp 1a and 64 % of Cmp 1a; in test [3] (setting [8]), 43 % of Cmp 1a and 38 % of Cmp 1a and 31 % of Cmp 1a and 47 % of Cmp 1a and 36 % of Cmp 1a. Also, the “Ca2+ signal (% of Cmp 1a)” value in test [3] (setting [9]) is 17 % of Cmp 1a and 13 % of Cmp 1a and 4.22 % of Cmp 1a and 19 % of Cmp 1a and 9 % of Cmp 1a; in test [3] (setting [10]), 7 % of Cmp 1a and 2.6 % of Cmp 1a and -3 % of Cmp 1a and 12 % of Cmp 1a and 3.24 % of Cmp 1a; in test [3] (setting [11]), 10 % of Cmp 1a and 2.43 % of Cmp 1a and 2 % of Cmp 1a and 1.64 % of Cmp 1a and 4 % of Cmp 1a; in test [3] (setting [12]) it was 3 % of Cmp 1a and 6 % of Cmp 1a (2×) and 5 % of Cmp 1a and 4.25 % of Cmp 1a; in test [3] (setting [13]) it was -0.76 % of Cmp 1a and -1.77 % of Cmp 1a and 0.877 % of Cmp 1a and 5.4 % of Cmp 1a and 0.153 % of Cmp 1a; in test [3] (setting [14]), 0.813 % of Cmp 1a and 0.273 % of Cmp 1a and -1 % of Cmp 1a and 1 % of Cmp 1a and 2.54 % of Cmp 1a. The “Ca2+ signal (% of Carbachol)” value in test [2] is 5.35 % of Carbachol and 0.226 % of Carbachol and -1.63 % of Carbachol. In addition, the EC50 in test [3] was 2000 nM. In addition, the Emax in test [3] amounted to 97 ± 3%.

With `COc1ccc(-c2nc(CC(=O)NC(C)c3ccccc3)no2)cn1` (stereo not shown) [Compound 1.26, COC1=NC=C(C2=NC(CC(NC(C3=CC=CC=C3)C)=O)=NO2)C=C1], the “Ca2+ signal (% of Cmp 1a)” value in test [1] is 29 % of Cmp 1a and 2 % of Cmp 1a and 52 % of Cmp 1a; in test [3] (setting [4]), 85 % of Cmp 1a and 87 % of Cmp 1a and 69 % of Cmp 1a; in test [3] (setting [5]), 87 % of Cmp 1a and 80 % of Cmp 1a and 98 % of Cmp 1a; in test [3] (setting [6]) it was 81 % of Cmp 1a and 61 % of Cmp 1a and 119 % of Cmp 1a; in test [3] (setting [7]), 56 % of Cmp 1a and 44 % of Cmp 1a and 97 % of Cmp 1a; in test [3] (setting [8]) it was 34 % of Cmp 1a and 6.33 % of Cmp 1a and 46 % of Cmp 1a. Further, the “Ca2+ signal (% of Cmp 1a)” value in test [3] (setting [9]) is 12 % of Cmp 1a and -9 % of Cmp 1a and 7 % of Cmp 1a; in test [3] (setting [10]) it was 8 % of Cmp 1a and 3 % of Cmp 1a and 10 % of Cmp 1a; in test [3] (setting [11]), 2.67 % of Cmp 1a and 0 % of Cmp 1a and -4.67 % of Cmp 1a; in test [3] (setting [12]), -9 % of Cmp 1a (2×) and 6.33 % of Cmp 1a; in test [3] (setting [13]), 1 % of Cmp 1a and -7 % of Cmp 1a and 3.33 % of Cmp 1a; in test [3] (setting [14]), -3.33 % of Cmp 1a and -8 % of Cmp 1a and 15 % of Cmp 1a. Moreover, the “Ca2+ signal (% of Carbachol)” value in test [2] is -15 % of Carbachol and -8 % of Carbachol and 11 % of Carbachol. In addition, in test [3], the EC50 is 2000 nM. Further, the Emax in test [3] worked out at 94 ± 9%.

Consider `CCn1nc(-c2nc(CC(=O)NC(C)c3ccccc3)no2)cc1C` (stereo not shown) [Compound 1.27, CCN1N=C(C2=NC(CC(NC(C3=CC=CC=C3)C)=O)=NO2)C=C1C], for which the “Ca2+ signal (% of Cmp 1a)” value in test [1] was 24 % of Cmp 1a and -1.33 % of Cmp 1a and 22 % of Cmp 1a; in test [3] (setting [4]), 81 % of Cmp 1a and 93 % of Cmp 1a and 60 % of Cmp 1a; in test [3] (setting [5]), 101 % of Cmp 1a and 107 % of Cmp 1a and 86 % of Cmp 1a; in test [3] (setting [6]), 91 % of Cmp 1a and 71 % of Cmp 1a and 89 % of Cmp 1a; in test [3] (setting [7]) it was 56 % of Cmp 1a and 61 % of Cmp 1a and 76 % of Cmp 1a; in test [3] (setting [8]), 25 % of Cmp 1a and 33 % of Cmp 1a and 48 % of Cmp 1a. For the same compound, the “Ca2+ signal (% of Cmp 1a)” value in test [3] (setting [9]) is 9 % of Cmp 1a and 7 % of Cmp 1a and 10 % of Cmp 1a; in test [3] (setting [10]), 4.22 % of Cmp 1a and -3 % of Cmp 1a and 6.42 % of Cmp 1a; in test [3] (setting [11]), 8 % of Cmp 1a and 2.12 % of Cmp 1a and -0.804 % of Cmp 1a; in test [3] (setting [12]), 0.271 % of Cmp 1a and 9 % of Cmp 1a and -0.437 % of Cmp 1a; in test [3] (setting [13]), -3 % of Cmp 1a and 2.65 % of Cmp 1a and 6.66 % of Cmp 1a; in test [3] (setting [14]), 4 % of Cmp 1a and -0.687 % of Cmp 1a and 5 % of Cmp 1a. In addition, in test [2], the “Ca2+ signal (% of Carbachol)” value was -1.81 % of Carbachol and 1.46 % of Carbachol and 5 % of Carbachol. In addition, the EC50 in test [3] was 2000 nM. In addition, in test [3], the Emax worked out at 96 ± 6%.

Turning to `CC(=O)c1ccc(-c2nc(CC(=O)NC(C)c3ccccc3)no2)s1` (stereo not shown) [Compound 1.28, CC(C1=CC=CC=C1)NC(CC2=NOC(C3=CC=C(C(C)=O)S3)=N2)=O], the “Ca2+ signal (% of Cmp 1a)” value in test [1] was 19 % of Cmp 1a and 58 % of Cmp 1a and 22 % of Cmp 1a; in test [3] (setting [4]), 64 % of Cmp 1a and 62 % of Cmp 1a and 50 % of Cmp 1a; in test [3] (setting [5]), 66 % of Cmp 1a and 68 % of Cmp 1a and 55 % of Cmp 1a and 56 % of Cmp 1a and 59 % of Cmp 1a; in test [3] (setting [6]), 77 % of Cmp 1a and 66 % of Cmp 1a and 55 % of Cmp 1a and 46 % of Cmp 1a and 59 % of Cmp 1a; in test [3] (setting [7]), 54 % of Cmp 1a and 43 % of Cmp 1a and 37 % of Cmp 1a and 21 % of Cmp 1a and 29 % of Cmp 1a; in test [3] (setting [8]) it was 23 % of Cmp 1a and 21 % of Cmp 1a and 9 % of Cmp 1a and 3.16 % of Cmp 1a and 14 % of Cmp 1a. For the same compound, the “Ca2+ signal (% of Cmp 1a)” value was 6.51 % of Cmp 1a and 1.59 % of Cmp 1a and -12 % of Cmp 1a and -2.27 % of Cmp 1a and -4.37 % of Cmp 1a in test [3] (setting [9]); -1.28 % of Cmp 1a and 2.34 % of Cmp 1a and -6.44 % of Cmp 1a and 7 % of Cmp 1a and -2 % of Cmp 1a in test [3] (setting [10]); 0.626 % of Cmp 1a and 6.36 % of Cmp 1a and -9 % of Cmp 1a and -0.267 % of Cmp 1a and 3 % of Cmp 1a in test [3] (setting [11]); -4.49 % of Cmp 1a and 4.31 % of Cmp 1a and -8 % of Cmp 1a and 1.18 % of Cmp 1a and -3.25 % of Cmp 1a in test [3] (setting [12]); -6.33 % of Cmp 1a and -0.329 % of Cmp 1a and -3.24 % of Cmp 1a and -1.55 % of Cmp 1a and -1.43 % of Cmp 1a in test [3] (setting [13]); -6.38 % of Cmp 1a and -2.27 % of Cmp 1a and -10 % of Cmp 1a and -4 % of Cmp 1a and 1.43 % of Cmp 1a in test [3] (setting [14]). In test [2], the “Ca2+ signal (% of Carbachol)” value was -12 % of Carbachol and -1.79 % of Carbachol and -4.4 % of Carbachol. Also, the “change in potency with larger substituents on the thiophene ring” value in test [3] (Ca2+ mobilization) is listed as “three-fold reduction to a complete loss of activity”. In test [3], the EC50 was 2510 nM. The Emax in test [3] worked out at 66 ± 3%.
